Structures are written as SMILES. Like-named read-outs stand apart in the source and are kept apart here.

Consider 1 compound from PMC9320886, “Daily Intraperitoneal Administration of Rosiglitazone Does Not Improve Lung Function or Alveolarization in Preterm Rabbits Exposed to Hyperoxia” (Pharmaceutics, 2022).

The nature of series [1]: lung tissue binding by equilibrium dialysis. Type of series: in vitro ADME. As to conditions: preterm rabbit lung homogenate, 4 h, 37 °C. The procedure:
In vitro lung tissue binding was also determined by equilibrium dialysis as described above. Preterm rabbit lungs (New Zealand White, BIOIVT) were homogenized using a Precellys tissue homogenizer (Bertin instruments, Montigny-le-Bretonneux, France). Precellys lysing vials (CK28-R, Bertin instruments) were filled with lung and buffer according to the following proportion: 1 g of tissue and 5 mL of ice-cold PBS (dilution 1:6). At the end of the homogenization process, a pool of lung homogenate was prepared mixing equal amount of homogenate from three different donors. Test compounds and the positive control were diluted in the pooled lung homogenate to a final concentration of […] and then dispensed into the red chamber of the RED device inserts. PBS was dispensed into the other side. Upon completion of 4 h of incubation (37 °C under shaking), equal aliquots were removed from each chamber and matrix matched with even volumes of lung homogenate or buffer for LC-MS/MS analyses.
Free and Bound percentages of the compounds were calculated as follows:(3) %Free=Area buffer sample/Area lung homogenate sample×100 (4) % Bound=100−%Free

The test system of series [2] is preterm rabbits exposed to hyperoxia. Nature of the series: pulmonary efficacy, daily intraperitoneal 1 mg/kg, preterm rabbits exposed to hyperoxia. The series is classed as in vivo, rabbit. As to conditions: daily i.p. 1 mg/kg. As for the experimental part: A total of 31 preterm rabbits with a GA of 28 days delivered from 4 does were included in the efficacy study. After delivery, newborn pups were put in hyperoxia (95% oxygen) for 1 h. Surviving pups were exposed to hyperoxia (95% O2) for 7 days and randomized to receiving daily (from postnatal day (PND) 0 to PND 6) intraperitoneal injections of RGZ at 1 mg/kg (n = 15) or the vehicle (n = 16).
Pups were placed on a sterilized soft bedding and remained in the incubator except for the feeding and treatments. Pups were fed 4 h after delivery on PND 0 with a milk replacer (Day One®, Protein 30%, Fat 50%; FoxValley, Aurora, IL, USA). Probiotics, electrolytes, and vitamins are added during the first 7 days (Bio-Lapis®; Probiotics International Ltd., Somerser, UK) and immunoglobulins during the first 2 days (Col-o-Cat®, SanoBest, Hertogenbosch, Netherlands). The standard feeding protocol consisted of incrementally increasing the amounts of milk replacer (PND 0: 40 mg/kg, PND 1: 50 mg/kg/day, PND 2: 75 mg/kg, PND 3–6: 100 mg/kg/day). On Day 2, vitamin K1 was administered intramuscularly (0.002 mg/kg BW, Konakion pediatrique®; Roche, Basel, Switzerland).
At Day 7, invasive lung function testing was performed using the forced oscillation technique with the flexiVent^TM apparatus (SCIREQ, Montréal, Canada). […]
The following parameters were measured: total inspiratory capacity, resistance of the respiratory system (Rrs), lung tissue damping (G), lung tissue elastance (H), and static compliance (Cst). […] The average of three measurements was calculated and used in the analysis. […]
The left lung and the right lungs were embedded in paraffin, cut, and stained with hematoxylin and eosin (H&E) following standard histology protocols. The radial alveolar count (RAC) was performed by an expert pathologist blinded to the experimental design by drawing a perpendicular line from the lumen of the terminal bronchiole to the nearest connective tissue septum or pleural margin and the number of saccules or alveoli crossed by this line was counted as previously described. […]

Series [3] in a line: Caco-2 permeability assay. The series is classed as in vitro ADME. As to conditions: human, apical to basolateral. As for the experimental part: Caco-2 cells were purchased from ReadyCell (Barcelona, Spain). The cells arrived already seeded and differentiated (21-days) in 96-well plates (CacoReady 96-well kits, ReadyCell). Cells were maintained in a cell culture medium: Dulbecco’s modified Eagle’s medium (DMEM) 1 g/L glucose containing 10% fetal bovine serum, 1% L-glutamine 200 mM, and 1% penicillin (10,000 U/mL)–streptomycin (10 mg/mL), all from Merck KGaA. The buffer used in the assay was Hanks Balanced Salt Solution (HBSS, Merck). Control compounds were: sulpiride (low permeability control), metoprolol (high permeability control), talinolol (P-glycoprotein transport (Pgp) substrate control), and GF120918 (Elacridar, Pgp inhibitor), all purchased from Merck KGaA.
The day of the experiment, the integrity of the cell monolayers was assessed before and after the assay by measuring the transepithelial electrical resistance (TEER). The permeability of the compounds across the cell monolayer was determined by measuring their transport in both directions: apical to basolateral (A → B) and basolateral to apical (B → A) in the absence and presence of Elacridar (a known P-gp inhibitor). The donor working solution was prepared by dilution of the DMSO stock of the test compound or positive control with HBSS (pH 7.4) to 10 µM. For A → B directional transport, the donor working solution (with test compound or positive control, with or without P-gp inhibitor) was added to the apical (A) and HBSS was added to the basolateral (B) compartment. For B → A directional transport, the donor working solution (with positive control or test compound […], with or without P-gp inhibitor) was added to the basolateral (B) and HBSS was added to the apical (A) compartment. The assay was performed with a Hamilton Star Lab robotic system. Samples were collected at t0 and 2 h after incubation (5% CO2, 95% relative humidity, 37 °C) for LC-MS/MS analyses.
Apparent permeability (Papp) was calculated with the following equation: (5) Papp(cm/sec)=(Vr/C0)×(1/A)×(Cr(t)/t) where Vr is the volume of the solution in the receiving compartment (mL); C0 is the initial test compound concentration in the donor compartment (expressed as area ratio); A is the membrane surface area (0.14 cm^2); Cr (t) is the measured concentration of the receiver well at time t120 (expressed as area ratio); and t is time of incubation (sec).
In general terms: Caco-2 monolayers are a common model of the intestinal barrier.

In the next series the test system is premature rabbits. On the set-up: method as in PMID 26375032. As to conditions: 3 mg/kg i.m. to the mothers 24 and 48 h prior to delivery; cited from earlier work.
In series [4] the test system is neonatal rats exposed to hyperoxia. On the set-up: method as in PMID 19304912. As to conditions: hyperoxia (95% O2), 1 or 3 mg/kg for 7 days; cited from earlier work.

Usually Papp A→B stands for the apparent permeability from the apical to the basolateral side of a cell layer. For `CN(CCOc1ccc(CC2SC(=O)NC2=O)cc1)c1ccccn1` (centres unmarked) [RGZ, rosiglitazone], the “Lung Tissue Binding (%)” value in series [1] came to 94.2 ± 0.7%. The compound further showed a weight gain in series [2] (PND 7) of 43.46 ± 4.84 g. Moreover, in series [2] (PND 7, vs vehicle), the “alveolarization (RAC)” value is listed as “neither improved”; the “lung function (inspiratory capacity, G, H and Cst)” value is listed as “neither improved”. The Papp A→B at 2 h, 10 µM in series [3] (Caco-2, pH 7.4, with Elacridar (GF120918), concentration not given, with Elacridar, read-out: Papp with Pgp Inhibitor (A–B)) came to 16.3 ×10⁻⁶ cm/s. Further, the Papp A→B at 2 h, 10 µM in series [3] (Caco-2, pH 7.4, 10 µM, 2 h, without Pgp inhibitor, read-out: Papp (A–B)) stood at 14.5 ×10⁻⁶ cm/s. In addition, the “hyperoxic lung injury at PND 7” value in the series on premature rabbits is listed as “attenuated”. Also, in series [4], the “RAC and alveolar septal thickness” value is given as “significantly improved”.
